Measurements: article PMC13376213, “Systematic discovery of motif-based interactions of the auxiliary domains of USP family deubiquitinases” (Nature Communications, 2026)
pKd: −log10 of the molar value. Where two headings read alike, the source gives them in different places.

Key:
Type in all cases: binding
[1] = biological target: T1, USP33 zf-UBP domain (Homo sapiens, UniProt Q8TEY7); assay: FP-monitored affinity measurements, USP33 zf-UBP; conditions: USP33_UBP; FP displacement by unlabelled peptide; read-out: KD
T1 construct: USP33_UBP; Q8TEY7; zf-UBP; 36; 130; 6xHis-GST (N, cleaved yes); made in house; host or cells: Escherichia coli BL21-Gold (DE3)
T1 sequence (Q8TEY7 with tags, fused parts or gaps): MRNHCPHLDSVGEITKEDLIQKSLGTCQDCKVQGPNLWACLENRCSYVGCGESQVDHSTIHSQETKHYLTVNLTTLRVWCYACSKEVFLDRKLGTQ
Protocol: (§3) The measurements were performed at room temperature in a non-binding black half area 96-well plate (Corning) with a total volume of 50 μL per well. […] All measurements were performed in three technical replicates. […] The saturation curves were fitted to the quadratic equation, and the displacement curves were fitted to a sigmoidal dose-response equation as described previously[68].

[2] = biological target: T2, USP20 DUSP2 domain (Homo sapiens, UniProt Q9Y2K6); assay: FP-monitored affinity measurements, USP20 DUSP2; conditions: USP20_DUSP2; FP displacement by unlabelled peptide; read-out: KD
T2 construct: USP20_DUSP2; Q9Y2K6; DUSP2; 776; 894; 6xHis-GST (N, cleaved yes); made in house; host or cells: Escherichia coli BL21-Gold (DE3)
Protocol: (§1) Proteins were expressed in Escherichia coli (E.coli) BL21-Gold (DE3) bacteria. The cDNAs encoding N-terminal 6-histidine-glutathione S-transferase tagged (6xHis-GST), 6xHis-tagged or GST-tagged protein domains in pETM33, pETM11, pGEX6P1 expression vectors respectively, were obtained from Genescript or kindly provided by MRC-PPU (Suppl. Data 1) The bacteria were transformed with the plasmid and grew at 37 °C in 2YT (5 g/L NaCl, 16 g/L tryptone and 10 g/L yeast extract) supplemented with Kanamycin (30 μg/mL) until reaching an OD600 of 0.7. Protein expression was induced with 0.3 mM isopropyl β-D-1 thiogalactopyranoside (IPTG) for 18 h at 18 °C while shaking. For zinc-finger domains, 50 μM of ZnSO4 was added during expression. The bacterial cultures were pelleted for 15 minutes at 4000 x g at 4 °C and stored at −20 °C until purification. The pellets were resuspended in lysis buffer (1× phosphate-buffered saline (PBS), 0.5 % Triton-X, 5 mM MgCl2, 10 μg/mL lysozyme, cOmplete^TM EDTA-free protease inhibitor cocktail (Roche), 10 μg/mL DNAseI) and incubated for 1 h shaking at 4 °C. […] The supernatant was incubated with glutathione (GSH) Sepharose (Cytiva) or Ni2+ Sepharose (Cytiva) for 1 h at 4 °C while shaking. The beads with the bound protein were washed with 1x PBS and eluted with 10 mM reduced glutathione in 50 mM Tris pH 8.0. For fluorescence polarization experiments, the proteins were not eluted from the beads, and the 6xHis-GST tag was cleaved overnight on GSH Sepharose beads at 4 °C while shaking with PreScission Protease in cleavage buffer (50 mM Tris pH 7.5, 150 mM NaCl, 1 mM DTT). The sample containing the cleaved domain was separated from the tag and protease and buffer-exchanged to 50 mM sodium phosphate buffer pH 7.4 with 1 mM DTT using a PD-10 desalting column (Cytiva). The purity and size of the proteins were analyzed by SDS-PAGE electrophoresis.
(§2) The measurements were performed at room temperature in a non-binding black half area 96-well plate (Corning) with a total volume of 50 μL per well. Peptides were obtained from GeneCust (France) with >95% purity. FITC-labeled peptides (N-terminally FITC-labeled without spacer and C-terminally amidated) were dissolved in dimethyl sulfoxide (DMSO), and unlabeled peptides (N-terminally acetylated and C-terminally amidated) were dissolved in 50 mM phosphate buffer pH 7.4. Saturation measurements were performed using a serial dilution of the protein domains in phosphate buffer (25 μL) and the addition of 10 nM FITC-labeled peptide (in phosphate buffer supplemented with 2 mM DTT) (25 μL). […] All measurements were performed in three technical replicates. The data were analyzed using GraphPad Prism version 9.2.0 for MacOS (GraphPad Software, San Diego, California USA, www.graphpad.com). The saturation curves were fitted to the quadratic equation, and the displacement curves were fitted to a sigmoidal dose-response equation as described previously.

[3] = biological target: T3, USP33 DUSP2 domain (Homo sapiens, UniProt Q8TEY7); assay: FP-monitored affinity measurements, USP33 DUSP2
T3 construct: USP33_DUSP2; Q8TEY7; DUSP2; 806; 921; 6xHis-GST (N, cleaved yes); made in house; host or cells: Escherichia coli BL21-Gold (DE3)
T3 sequence (Q8TEY7 with tags, fused parts or gaps): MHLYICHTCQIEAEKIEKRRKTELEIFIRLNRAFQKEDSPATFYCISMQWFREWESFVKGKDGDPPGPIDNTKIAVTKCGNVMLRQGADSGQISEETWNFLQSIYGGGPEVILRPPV
Protocol: as §1, §2

[4] = biological target: T4, USP20 zf-UBP domain (Homo sapiens, UniProt Q9Y2K6); assay: FP-monitored affinity measurements, USP20 zf-UBP; conditions: USP20_UBP; FP displacement by unlabelled peptide; read-out: KD
T4 construct: USP20_UBP; Q9Y2K6; zf-UBP; 99; 6xHis-GST (N, cleaved yes); made in house; host or cells: Escherichia coli BL21-Gold (DE3)
Protocol: as §3

[5] = biological target: T2, USP20 DUSP2 domain; assay: Peptide SPOT array, USP20 DUSP2;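 also: GST-tagged domain probed overnight at 4 °C on peptides made on cellulose membranes, bound protein detected via HRP-coupled anti-GST antibody, spot intensity from image analysis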
Protocol: Peptides were synthesized on cellulose membranes with standard Fluoroenylmethylox-ycarbonyl (Fmoc) chemistry using a Multipep automated synthesizer at INTAVIS (Tübingen, Germany) or ordered from JPT (PepSpots). The membranes were activated with methanol for 5 min and washed three times for 5 min with TBST (50 mM Tris, 137 mM NaCl, 2.7 mM KCl, pH 8.0, 0.05% Tween-20). The membranes were incubated with blocking buffer (5% skim milk powder in TBST) for 2 h at room temperature while shaking. The membranes were incubated with the GST-tagged protein diluted at the desired concentration in blocking buffer and incubated overnight at 4 °C while shaking. The membrane was rinsed 3 times with TBST and incubated with HRP-conjugated anti-GST antibody (Cytiva, RPN1236; 1:3000 dilution) in blocking buffer for 1 h at 4 °C while shaking. […] The images were analyzed in Fiji (ImageJ2 version 2.9.0).

[6] = biological target: T3, USP33 DUSP2 domain; assay: Peptide SPOT array, USP33 DUSP2; conditions: average normalised to the highest intensity (CCDC88B = 100)
[7] = USP33_DUSP2, FP displacement by unlabelled peptide, read-out: KD

T2 sequence (Q9Y2K6 with tags, fused parts or gaps): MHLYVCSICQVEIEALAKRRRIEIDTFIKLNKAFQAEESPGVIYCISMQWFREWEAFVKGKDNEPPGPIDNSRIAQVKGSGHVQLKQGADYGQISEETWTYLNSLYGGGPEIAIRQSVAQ
T4 sequence (Q9Y2K6 4-99): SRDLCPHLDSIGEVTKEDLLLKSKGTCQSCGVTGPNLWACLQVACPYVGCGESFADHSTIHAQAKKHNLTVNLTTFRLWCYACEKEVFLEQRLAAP

CC(=O)N[C@@H](Cc1ccc(O)cc1)C(=O)N[C@@H](CCCCN)C(=O)N[C@@H](CCC(N)=O)C(=O)N[C@@H](CCC(N)=O)C(=O)N[C@@H](CCCNC(=N)N)C(=O)N[C@@H](CO)C(=O)N[C@@H](CC(=O)O)C(=O)N[C@@H](CC(C)C)C(=O)N[C@@H](C)C(=O)NCC(=O)N1CCC[C@H]1C(=O)N[C@H](C(=O)N[C@@H](CC(=O)O)C(N)=O)C(C)C [APBA2_N334A]
pKd [1]: 3.95

CC[C@H](C)[C@H](NC(=O)[C@H](Cc1ccc(O)cc1)NC(=O)[C@@H]1CCCN1C(C)=O)C(=O)N1CCC[C@H]1C(=O)N[C@@H](CCSC)C(=O)N[C@@H](CC(=O)O)C(=O)N[C@@H](CC(=O)O)C(=O)N[C@@H](CC(=O)O)C(=O)N[C@@H](C)C(=O)N[C@@H](CCC(N)=O)C(=O)N[C@@H](CC(C)C)C(=O)N[C@@H](CCCNC(=N)N)C(=O)N[C@@H](CO)C(=O)N[C@@H](Cc1ccccc1)C(=O)N[C@@H](CC(=O)O)C(=O)N[C@@H](CCC(N)=O)C(=O)N[C@@H](CC(C)C)C(=O)N[C@@H](CO)C(N)=O [HIF1A_F572A]
pKd [2]: ~3.23 | pKd [3, 7]: ~3.03

AQDSPIDFHLQSWMNN [CEP192]
pKd [4]: 4.43 | pKd [1]: 4.85

Ac-PYIPMDDDFQARSFDQLS-NH2 [HIF1A_L574A]
pKd [2]: 4.05 | pKd [3, 7]: ~3.64

Ac-PYIPMDDKFQLRSFDQLS-NH2 [HIF1A_D571K]
pKd [2]: 4.07 | pKd [3, 7]: ~3.84

Ac-PYIPMDGEDFQLSPICPE-NH2 [HIF2A]
pKd [2]: ~3.63 | pKd [3, 7]: ~2.93

Ac-SDDDLAWNIAPQGLQ-NH2 [GPR137B348-362]
Average ([5]; peptide SPOT array intensity minus background, sheet S5A, mean of 2 replicas): 1.607 | Normalize to higher intensity (%) ([5]; peptide SPOT array, USP20 DUSP2, average normalised to the highest intensity (ARNTL2 = 100)): 0.8997% | Normalize to peptide with higher intensity % ([5]; peptide SPOT array, sheet S5A, average normalized to the peptide with highest intensity (ARNTL2 = 100)): 0.8997% | pKd [2]: 4.99 | pKd [3, 7]: ~3.64 | pKd ([3]; competitive FP: unlabeled peptide (N-acetylated, C-amidated) against protein with 10 nM FITC-labeled peptide, 50 mM phosphate pH 7.4, room temperature, technical triplicate, read-out: KD, USP33 DUSP2): < 3.70 | Normalize to higher intensity (%) [6]: -9.797%

Ac-YEKVKRRLDLDID-NH2 [CCP110]
pKd [4]: ~3.30 | pKd [1]: ~3.59
